Assay results published in patent EP3409278B1, “HETEROCYCLIC PROTEIN KINASE INHIBITORS” (Tolero Pharmaceuticals, Inc., priority 2011, dated 2013).

Biological target: Pim-1 kinase (Homo sapiens, UniProt P11309)
Experiment: Pim-1 kinase inhibition assay (Promega Kinase-Glo)
Format: biochemical
Settings: not given
Excerpt: One illustrative manner in which Pim-1 kinase activity can be determined is by quantifying the amount of ATP remaining in solution after an in vitro Pim-1 kinase reaction. The Kinase-Glo Assay Kit (Promega, Inc., Madison, WI) allows this. The amount of ATP remaining in the solution after the kinase reaction serves as a substrate for the luciferase to catalyze luciferin to oxyluciferin plus one photon of light. Thus, the luminescent signal read by the Luminoskan Ascent Instrument (Thermo Electron Corp., Milford, MA) correlates with the amount of ATP present after the kinase reaction and inversely correlates with the amount of kinase acitivity. […] These assays are set up in duplicate 50ul volumes in white, flat bottom 96 well plates. […] This solution is incubated at 30 degrees Celsius at 360rpm for two hours. Following the incubation, 50ul of Kinase-Glo reagent is added to each well, including all positive and negative control wells, and incubated at room temperature for 15 minutes. […] The IC50 values can then be calculated for each inhibitor tested.

Chain of Pim-1 kinase (P11309 whole entry): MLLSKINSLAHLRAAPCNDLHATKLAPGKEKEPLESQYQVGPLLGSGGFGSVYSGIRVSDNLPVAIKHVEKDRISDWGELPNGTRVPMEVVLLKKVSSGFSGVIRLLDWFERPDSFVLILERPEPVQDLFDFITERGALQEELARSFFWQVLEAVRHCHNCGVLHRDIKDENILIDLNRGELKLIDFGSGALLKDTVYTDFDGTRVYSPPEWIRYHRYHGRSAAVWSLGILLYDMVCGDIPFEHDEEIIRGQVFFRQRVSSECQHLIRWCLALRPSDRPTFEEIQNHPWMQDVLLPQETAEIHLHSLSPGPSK

| Structure (SMILES) | IC50 [nM] |
| --- | --- |
| FC1(F)CCC(CNc2ccc3ncc(-c4cccc(OC(F)(F)F)c4)n3n2)CC1 [8-17, N-((4,4-difluorocyclohexyl)methyl)-3-(3-(trifluoromethoxy)phenyl)imidazo[1,2-b]pyridazin-6-amine] | 173 |

Same assay, conditions: Table IV; Kinase-Glo, 10uM ATP; read-out: IC50 on Pim1

| Structure (SMILES) | IC50 [nM] |
| --- | --- |
| CC(C)(O)[C@H]1CC[C@H](Nc2ccn3ncc(-c4cccc(OC(F)(F)F)c4)c3n2)CC1 [8-47] | 204 |
| O=S1(=O)CCC(CNc2ccn3ncc(-c4cccc(OC(F)(F)F)c4)c3n2)CC1 [8-51, 4-(((3-(3-(Trifluoromethoxy)phenyl)pyrazolo[1,5-a]pyrimidin-5-y/)amino)methyl)tetrahydro-2H-thiopyran 1,1-dioxide] | 148 |
| NCC1CCN(c2ccc3ncc(-c4cccc(OC(F)(F)F)c4)n3n2)C(=O)C1 (stereo not shown) [8-24, 4-(Aminomethyl)-1-(3-(3-(trifluoromethoxy)phenyl)imidazo[1,2-b]pyridazin-6-y/)piperidin-2-one] | 34 |
| CN1CCC(CNc2ccn3ncc(-c4cccc(OC(F)(F)F)c4)c3n2)CC1 [8-67, N-((1-Methylpiperidin-4-yl)methyl)-3-(3-(trifluoromethoxy)phenyl)pyrazolo[1,5-a]pyrimidin-5-amine] | 45 |
| O=S1(=O)CCN(c2ccc3ncc(-c4cccc(OC(F)(F)F)c4)n3n2)CC1 [8-15, 4-(3-(3-(Trifluoromethoxy)phenyl)imidazo[1,2-b]pyridazin-6-yl)thiomorpholine 1,1-dioxide] | 2830 |
| FC(F)(F)c1cccc(-c2cnn3ccc(NC4CCOCC4)nc23)c1 [8-58, N-(Tetrahydro-2H-pyran-4-yl)-3-(3-(trifluoromethyl)phenyl)pyrazolo[1,5-a]pyrimidin-5-amine] | 149 |
| CO[C@H]1CC[C@H](Nc2ccn3ncc(-c4cccc(OC(F)(F)F)c4)c3n2)CC1 [8-49, 4-(trans-Methoxycyclohexyl)-3-(3-(trifluoromethoxy)phenyl)pyazolo[1,5-a]pyrimidin-5-amine] | 378 |
| COCCOc1ccc2ncc(-c3cccc(OC(F)(F)F)c3)n2n1 [8-42, 6-(2-Methoxyethoxy)-3-(3-(trifluoromethoxy)phenyl)imidazo[1,2-b]pyridazine] | 1970 |
| C[C@]1(O)CC[C@H](Nc2ccn3ncc(-c4cccc(OC(F)(F)F)c4)c3n2)CC1 [8-48, 1-Methyl-4-((3-(3-(trifluoromethoxy)phenyl)pyrazolo[1,5-a]pyrimidin-5-yl)amino)-trans-cvclohexanol] | 197 |
| CO[C@H]1CC[C@H](Nc2ccn3ncc(-c4cccc(C(F)(F)F)c4)c3n2)CC1 [8-57, 4-(trans-Methoxycyclohexyl)-3-(3-(trifluoromethyl)phenyl)pyrazolo[1,5-a]pyrimidin-5-amine] | 66 |
| O=S1(=O)CCC(CNc2ccn3ncc(-c4cccc(Cl)c4)c3n2)CC1 [8-66, 4-(((3-(3-Chlorophenyl)pyrazolo[1,5-a]pyrimidin-5-yl)amino)methyl)tetrahydro-2H-thiopyran 1.1-dioxide] | 164 |
| O=C(CN1CCOCC1)N1CCC(CNc2ccc3ncc(-c4cccc(OC(F)(F)F)c4)n3n2)CC1 [8-21, 2-Morpholino-1-(4-(((3-(3-(trifluoromethoxy)phenyl)imidazo[1,2-b]pyridazin-6-yl)amino)methyl)piperidin-1-yl)ethanone] | 46 |
| N[C@H]1CCCN(c2ccn3ncc(-c4cccc(Cl)c4)c3n2)C1 [8-96, (S)-1-(3-(3-chlorophenyl)pyrazolo[1,5-a]pyrimidin-5-yl)piperidin-3-amine] | 94 |

More lines, now with the values ahead:

| IC50 [nM] | Structure (SMILES) |
| --- | --- |
| 48 | Clc1cccc(-c2cnc3ccc(NC4CCOCC4)nn23)c1 [8-39, 3-(3-Chlorophenyl)-N-(tetrahydro-2H-pyran-4-yl)imidazo[1,2-b]pyridazin-6-amine] |
| 7 | O[C@H]1CC[C@H](Oc2ccc3ncc(-c4cccc(OC(F)(F)F)c4)n3n2)CC1 [8-4, 4-((3-(3-(Trifluoromethoxy)phenyl)imidazo[1,2-b]pyridazin-6-yl)oxy)-trans-cyclohexanol] |
| 1630 | O=C1CC(CNc2ccc3ncc(-c4cccc(OC(F)(F)F)c4)n3n2)CCN1 (stereo not shown) [8-23, 4-(((3-(3-(Trifluoromethoxy)phenyl)imidazo[1,2-b]pyridazin-6-yl)amino)methyl)piperidin-2-one] |
| 10 | O[C@H]1C[C@H](CNc2ccc3ncc(-c4cccc(OC(F)(F)F)c4)n3n2)C1 [8-7, 3-(((3-(3-(Trifluoromethoxy)phenyl)imidazo[1,2-b]pyridazin-6-yl)amino)methyl)-trans-cyclobutanol] |
| 56 | CC(C)(O)[C@H]1CC[C@H](Nc2ccc3ncc(-c4cccc(F)c4)n3n2)CC1 [8-75, 2-(trans-4-((3-(3-fluorophenyl)imidazo[1,2-b]pyridazin-6-yl)amino)cyclohexyl)propan-2-ol] |
| 36 | O[C@@H]1CC[C@@H](Nc2ccc3ncc(-c4cccc(OC(F)(F)F)c4)n3n2)C1 [8-5, (1R,3R)3-((3-(3-(Trifluoromethoxy)phenyl)imidazo[1,2-b]pyridazin-6-yl)amino)cyclopentanol] |
| 16 | CC(C)(O)C(=O)N1CCC(CNc2ccc3ncc(-c4cccc(OC(F)(F)F)c4)n3n2)CC1 [8-20, 2-Hydroxy-2-methyl-1-(4-(((3-(3-(trifluoromethoxy)phenyl)imidazo[1,2-b]pyridazin-6-yl)amino)methyl)piperidin-1-yl)propan-1-one] |
| 503 | CC(C)O[C@H]1CC[C@H](Nc2ccc3ncc(-c4cccc(OC(F)(F)F)c4)n3n2)CC1 [8-16, 4-(trans-Isopropoxycyclohexyl)-3-(3-(trifluoromethoxy)phenyl)imidazo[1,2-b]pyridazin-6-amine] |
| 30 | N[C@H]1CCCN(c2ccc3ncc(-c4cccc(OC(F)(F)F)c4)n3n2)C1 [8-25, (S)-1-(3-(3-(Trifluoromethoxy)phenyl)imidazo[1,2-b]pyridazin-6-yl)piperidin-3-amine] |
| 200 | O=S1(=O)CCC(CNc2ccc3ncc(-c4cccc(Cl)c4)n3n2)CC1 [8-40] |
| 30 | CC(C)(O)CNc1ccc2ncc(-c3cccc(OC(F)(F)F)c3)n2n1 [8-6, 2-Methyl-1-((3-(3-(trifluoromethoxy)phenyl)imidazo[1.2-b]pyridazin-6-yl)amino)propan-2-ol] |
| 1190 | O=S1(=O)CCC(Nc2ccc3ncc(-c4cccc(OC(F)(F)F)c4)n3n2)CC1 [8-14, 4-((3-(3-(Trifluoromethoxy)pheny/)imidazo[1,2-]pyridazin-6-yl)amino)tetrahydro-2H-thiopyran 1,1-dioxide] |
| 553 | FC(F)(F)Oc1cccc(-c2cnc3ccc(OCC4CCOCC4)nn23)c1 [8-28, 6-((Tetrahydro-2H-pyran-4-yl)methoxy)-3-(3-(trifluoromethoxy)phenyl)imidazo[1,2-b]pyridazine] |
| 4 | N[C@H]1CC[C@H](Nc2ccc3ncc(-c4cccc(Cl)c4)n3n2)CC1 [8-68, N1-(3-(3-Chlorophenyl)imidazo[1,2-b]pyridazin-6-yl)cyclohexane-1,4-trans-diamine] |
| 18 | CO[C@H]1CC[C@H](Nc2ccc3ncc(-c4cccc(Cl)c4)n3n2)CC1 [8-38, 3-(3-Chlorophenyl)-N-(4-trans-methoxycyclohexyl)imidazo[1,2-b]pyridazin-6-amine] |
| 5 | N[C@H]1CC[C@H](Nc2ccn3ncc(-c4cccc(OC(F)(F)F)c4)c3n2)CC1 [8-52, N-(3-(3-(Trifluoromethoxy)phenyl)pyrazolo[1,5-a]pyrimidin-5-yl)cyclohexane-1,4-trans-diamine] |
| 23 | CC(C)(O)[C@H]1CC[C@H](Nc2ccn3ncc(-c4cccc(Cl)c4)c3n2)CC1 [8-63] |

Same assay, conditions: Table V; Kinase-Glo, 10uM ATP; read-out: IC50 on Pim1

| Structure (SMILES) | IC50 [nM] |
| --- | --- |
| FC(F)(F)c1cccc(-c2nnc3ccc(NC4CCOCC4)cn23)c1 [8-110, N-(Tetrahydro-2H-pyran-4-y/)-3-(3-(trifluoromethy/)pheny/)-[1,2,4]triazolo[4,3-a]pyridin-6-amine] | 3170 |
| CC(C)(O)[C@H]1CC[C@H](Nc2ccc3nnc(-c4cccc(C(F)(F)F)c4)n3c2)CC1 [8-109] | 3870 |
| FC(F)(F)Oc1cccc(-c2nnc3ccc(NC4CCOCC4)cn23)c1 [8-102, N-(Tetrahydro-2H-pyran-4-yl)-3-(3-(trifluoromethoxy)phenyl)-[1,2,4]triazolo[4,3-a]pyridin-6-amine] | 3250 |
| CC(C)(O)[C@H]1CC[C@H](Nc2ccc3nnc(-c4cccc(OC(F)(F)F)c4)n3c2)CC1 [8-101] | 488 |
| O=S1(=O)CCC(CNc2ccc3nnc(-c4cccc(OC(F)(F)F)c4)n3c2)CC1 [8-103, 4-(((3-(3-(Trifluoromethoxy)phenyl)-[1,2,4]triazolo[4,3-a]pyridin-6-y/)amino)methyl)tetrahydro-2H-thiopyran 1,1-dioxide] | 3800 |

Further lines, results first:

| IC50 [nM] | Structure (SMILES) |
| --- | --- |
| 3950 | O[C@H]1CC[C@H](Nc2ccc3nnc(-c4cccc(C(F)(F)F)c4)n3c2)CC1 [8-107, 4-((3-(3-(Trifluoromethyl)phenyl)-[1,2,4]triazolo[4,3-a]pyridin-6-yl)amino)-trans-cyclohexanol] |
| 684 | O[C@H]1CC[C@H](Nc2ccc3nnc(-c4cccc(OC(F)(F)F)c4)n3c2)CC1 [8-104, 4-((3-(3-(Trifluoromethoxy)phenyl)-[1,2,4]triazolo[4,3-a]pyridin-6-yl)amino)-trans-cyclohexanol] |
| 2490 | FC(F)(F)Oc1cccc(-c2nnc3ccc(N[C@H]4CC[C@@H](Br)CC4)cn23)c1 [8-105, 4-(cis-Bromocyclohexyl)-3-(3-(trifluoromethoxy)phenyl)-(1,2,4]triazolo[4,3-a]pyridin-6-amine] |
